Assay [1] relates to general cellular transcription/translation (R-Luc). The assay can be described thus: Dual-reporter assay, R-Luc in bl-DTR cells. Type of assay: cell-based. Particulars: doxycycline, 24 h. The method in brief: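 bl-DTR cells (TZM-bl with Dox-inducible Flag-Tat86 and R-Luc cassettes; 1 × 10^4) were pretreated with twofold compound dilutions, then induced with 50 ng/mL doxycycline. After 24 h, firefly luciferase (Tat-driven LTR) and Renilla luciferase (general expression) were read by dual-luciferase assay.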
On the technique in general: A reporter such as luciferase makes a cellular process visible.

Assay [2] relates to proviral DNA integrated to the host chromosome. In words: Integrated proviral DNA, nested Alu-PCR in A3.01 cells. Type of assay: cell-based, HIV-1. Particulars: compounds 5 µM, 40 h after infection. The protocol: Fig 5 (A) Time-of-addition assay. […] Subsequently, the cells were treated with the compounds at the indicated time points (0, 1, 2, 4, 6, 8, 10, 12, 24, 30, 36, 42, and 48 h) after HIV-1 infection. The final concentrations of compounds are described in Materials and Methods. Viral activity according to the timing of drug addition was measured as F-Luc activity at 54 h after infection. The relative activities are represented as the mean ± SD (n = 3) compared with the activity observed 54 h post-infection. The relative time frames associated with each HIV-1 infection step are defined based on the time frame of susceptibility to the drug that blocks that particular infection step. […] At 16 h after infection, the viral reverse transcription (RT) product (viral cDNA) level was determined by quantitative real-time PCR (RT-qPCR) using gag and 18S rRNA primer sets and represented as the mean ± SD (n = 3) normalized against the amount of the 18S rRNA compared with the DMSO control. **P < 0.01 compared with the vehicle (DMSO). (C) An in vitro integrase (IN) assay was performed with 10 µM of the indicated compounds following the manufacturer’s protocol. **P < 0.01 compared with vehicle (DMSO). (D) A3.01 cells were infected with HIV-1 upon treatment with the indicated compounds (5 µM) and ARVs (EFV and DTG) as the experimental controls. At 40 h after infection, cellular chromosomal DNA was purified, and the integrated proviral DNA was detected through nested Alu-PCR amplification.
The activity of HIV-1 RT was determined as previously described with some minor modifications ([66][–][68]). In brief, HIV-1NL4-3 obtained from plasmid transfection was treated with DNase I (2.5 U/mL) for 2 h at 37°C to remove the plasmid DNA. […] Sixteen hours after infection, the cell cytosolic DNA was isolated under RNase A treatment, and the RT products (cytosolic viral cDNA) were quantified using RT-qPCR and the following primers: gag forward, 5′-[…]-3′, gag reverse, 5′-[…]-3′; 18S rRNA forward, 5′-[…]-3′, 18S rRNA reverse, 5′-[…]-3′. The relative levels of RT products were analyzed using the ΔΔCt-method, as described above. In vitro integrase activity was determined using an HIV-1 integrase assay kit (XpressBio, Frederick, MD, USA) as previously described ([12]). In brief, a 96-well plate coated with donor substrate DNA was blocked, and HIV-1 integrase was then added to the plate. Subsequently, the compounds and target substrate DNA were added to the plate and incubated for 30 min at 37°C. The plate was washed and subsequently incubated with horse radish peroxidase. Integrase activity was measured by the peroxidase activity with the substrate at an optical density of 450 nm. The experiment was performed in triplicates. Detection of integrated proviral DNA was performed as previously described ([69]) with some minor modifications. […] Chromosomal DNA was purified using the G-Spin DNA extraction kit (Intron Bio Tech, Seongnam-si, Gyeonggi-do, Republic of Korea). The integrated proviral HIV-1 DNA was detected by nested Alu-PCR amplification using the following primers: first round PCR, Alu forward, 5′-[…]-3′, pol reverse, 5′-[…]-3′; second round PCR, gag forward, 5′-[…]-3′, pol reverse. gapdh was used as the control gene.

A value given as a limit tells only on which side of the number the result lay.

`CC(C)[C@]12O[C@H]1[C@@H]1O[C@]13[C@]1(O[C@H]1C[C@H]1C4=C(CC[C@@]13C)C(=O)OC4)[C@@H]2O` [triptolide, reference compound]: in assay [1], the “Relative R-Luc activity at IC50 of F-Luc” value is above 100. Consider `C[C@@H]1CCO[C@H]2Cn3cc(C(=O)NCc4ccc(F)cc4F)c(=O)c(O)c3C(=O)N12` [DTG, dolutegravir, reference compound], for which the “nested Alu-PCR band for integrated proviral DNA” value (shortened to “nested Alu-PCR band”) in assay [2] is reported as “not detected”. For the molecule `O=C1Nc2ccc(Cl)cc2[C@@](C#CC2CC2)(C(F)(F)F)O1` [EFV, efavirenz, reference compound], the “nested Alu-PCR band” value in assay [2] was “not detected”.

As to `Cc1[nH]c2ccc(-c3nnc(SCC(=O)N4CCCCC4)o3)cc2c1C` [Compound 9, 2-((5-(2,3-Dimethyl-1H-indol-5-yl)-1,3,4-oxadiazol-2-yl)thio)-1-(piperidin-1-yl)ethan-1-one], the “nested Alu-PCR band” value in assay [2] was “observed”. In addition, in assay [1], the “Relative R-Luc activity at IC50 of F-Luc” value is given as above 100. `Cc1[nH]c2ccc(-c3nnc(SCC(=O)N4CCCC4)o3)cc2c1C` [Compound 13, 2-((5-(2,3-Dimethyl-1H-indol-5-yl)-1,3,4-oxadiazol-2-yl)thio)-1-(pyrrolidin-1-yl)ethan-1-one]: in assay [2], the “nested Alu-PCR band” value was “observed”. Also, in assay [1], the “Relative R-Luc activity at IC50 of F-Luc” value was above 100.

(Values after paper PMC11459959, “Discovery of new acetamide derivatives of 5-indole-1,3,4-oxadiazol-2-thiol as inhibitors of HIV-1 Tat-mediated viral transcription” (Antimicrobial Agents and Chemotherapy, 2024).)
